Measurements: ChEMBL document CHEMBL1155854, “Conformationally constrained farnesoid X receptor (FXR) agonists: Naphthoic acid-based analogs of GW 4064” (Bioorg Med Chem Lett, 2008)

Legend:
Bile acid receptor [1] = target: T1, Bile acid receptor (Homo sapiens, UniProt Q96RI1); experiment: Agonist activity at FXR expressed in african green monkey CV1 cells by luciferase reporter transient transfection assay; format: functional, cell-based, CV-1
T1 sequence (Q96RI1 whole entry): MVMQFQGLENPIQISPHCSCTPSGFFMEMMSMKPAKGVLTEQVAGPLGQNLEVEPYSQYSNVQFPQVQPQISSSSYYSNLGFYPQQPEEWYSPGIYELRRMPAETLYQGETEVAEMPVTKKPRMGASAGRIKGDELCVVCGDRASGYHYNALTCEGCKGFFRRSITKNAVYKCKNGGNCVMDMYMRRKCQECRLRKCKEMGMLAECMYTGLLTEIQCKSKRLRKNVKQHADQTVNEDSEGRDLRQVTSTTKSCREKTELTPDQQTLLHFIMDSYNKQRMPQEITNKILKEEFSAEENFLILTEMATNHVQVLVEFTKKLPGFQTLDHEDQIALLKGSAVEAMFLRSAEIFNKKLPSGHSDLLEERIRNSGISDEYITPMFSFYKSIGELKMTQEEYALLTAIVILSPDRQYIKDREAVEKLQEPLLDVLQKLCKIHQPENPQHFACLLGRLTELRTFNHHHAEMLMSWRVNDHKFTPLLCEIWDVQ

[2] = target: T2, Bile acid receptor (Homo sapiens) (UniProt Q96RI1); experiment: Agonist activity at FXR assessed as receptor-SRC-1 peptide interaction by FRET assay relative to GW-4064; format: functional
T2 sequence (whole entry): T1 sequence (Q96RI1 whole entry)

[3] = target: T2, Bile acid receptor (Homo sapiens); experiment: Agonist activity at FXR expressed in african green monkey CV1 cells by luciferase reporter transient transfection assay relative to GW-4064; format: functional, cell-based; conditions: CV-1
Bile acid receptor [4] = target: T1, Bile acid receptor; experiment: Agonist activity at FXR assessed as receptor-SRC-1 peptide interaction by FRET assay; format: functional

| Structure (SMILES) | EC50 (Bile acid receptor [1]) [nM] | %max [2] [%] | %max [3] [%] | EC50 (Bile acid receptor [4]) [nM] |
| --- | --- | --- | --- | --- |
| CC(C)c1onc(-c2c(Cl)cccc2Cl)c1COc1ccc(-c2ccc3cc(C(=O)O)ccc3c2)cc1 | 45 | 90 | 87 | 100 |
| CC(C)c1onc(-c2c(Cl)cccc2Cl)c1COc1ccc(-c2ccc3ccc(C(=O)O)cc3c2)cc1 | 500 | 69 | 90 | 420 |
| CC(C)c1onc(-c2c(Cl)cccc2Cl)c1COc1ccc(-c2ccc3cccc(C(=O)O)c3c2)cc1 | 3300 | 52 | 27 | 2300 |
